{
  "source": "patent US20240100183A1",
  "about": "“COMPOSITIONS COMPRISING MOLECULES FOR CYSTIC FIBROSIS TREATMENT” (UNiversity of Iowa Research Foundation, priority 2020, published 2024)",
  "key": {"[1]": {"settings": "cited from earlier work; for aqueous (water) solubility: room temperature"}, "[2]": {"assay": "Phase solubility of ivacaftor in cyclodextrin solutions", "type": "physicochemical", "settings": "for solubility at 3 days: aqueous with cosolvent or surfactant or cyclodextrin, thermodynamic from solid", "description": "Excess amounts of powdered ivacaftor were suspended in different concentrations of different types of CD's (up to […] in the case of βCD, and up to […] in the case of αCD, γCD, and HPβCD). The suspensions were shaken at 3000 rpm at room temperature for 3 days. Then, samples were collected and filtered, and the concentration of ivacaftor was determined using HPLC, as described below. An Agilent HPLC workstation series 1100 (Agilent Technologies, Santa Clara, CA) was used for the analysis. The column used was Waters Symmetry C18 5 μm (4.6×150 mm), and the mobile phase consisted of 6:4 acetonitrile: water with 0.1% v/v trifluoroacetic acid (TFA) at a flow rate of 1 ml/min (at 25±2° C.). Detection was carried out using an Agilent Diode array detector (DAD) at 309 nm."}, "[3]": {"settings": "oral 150 mg twice daily; cited from earlier work"}, "[4]": {"assay": "Ivacaftor solubility in the release medium", "type": "physicochemical", "settings": "release medium (polysorbate 80 in DPBS), aqueous with cosolvent or surfactant or cyclodextrin; 0.4% v/v polysorbate 80 in 1×DPBS, 37° C."}},
  "note": "Several values for one entry are separate records, joined by “and”; a condition that tells them apart may be missing. Equal entries are not always repeated. Where two headings read alike, the source gives them in different places.",
  "data": [
    {"smiles": "CC(C)(C)c1cc(C(C)(C)C)c(NC(=O)c2c[nH]c3ccccc3c2=O)cc1O", "note": "[Ivacaftor, N-(2,4-Di-tert-butyl-5-hydroxyphenyl)-4-oxo-1,4-dihydroquinoline-3-carboxamide]", "values": [
      {"measurement": "log P", "setting": "[1]", "result": 3.13},
      {"measurement": "log P", "setting": "[1]; listed as IVA", "result": 3.3},
      {"measurement": "aqueous (water) solubility", "setting": "[1]", "result": "about 0.05 μg/ml"},
      {"measurement": "aqueous (water) solubility", "setting": "[1]; listed as IVA", "result": "< 0.05", "unit": "µg/mL"},
      {"measurement": "solubility in βCD relative to aqueous solubility", "setting": "[2]; 10 μM βCD", "result": "about 24 times"},
      {"measurement": "solubility in γCD relative to aqueous solubility", "setting": "[2]; 25 μM γCD", "result": "about 10 times"},
      {"measurement": "solubility in HPβCD relative to aqueous solubility", "setting": "[2]; 50 μM HPβCD", "result": "about 1000 times"},
      {"measurement": "solubility in HPβCD relative to maximum βCD concentration", "setting": "[2]; 50 μM HPβCD vs 10 μM βCD", "result": "about 40 times"},
      {"measurement": "solubility in HPβCD relative to αCD and γCD", "setting": "[2]; 50 μM of each CD", "result": "100-150 times"},
      {"measurement": "solubility at 3 days", "setting": "[2]; HPβCD solution, 50 μM HPβCD, room temperature, 3 days shaking, read-out: ivacaftor solubility in HPβCD solution", "result": 50, "unit": "µg/mL"},
      {"measurement": "solubility in βCD relative to αCD and γCD", "setting": "[2]; same concentration (10 μM)", "result": "5-6 times and 5-8 times"},
      {"measurement": "solubility at 3 days", "setting": "[2]; βCD solution, 10 μM βCD, read-out: ivacaftor solubility in βCD solution", "result": 1.2, "unit": "µg/mL"},
      {"measurement": "solubility at 3 days", "setting": "[2]; γCD solution, 25 μM γCD, read-out: ivacaftor solubility in γCD solution", "result": 0.5, "unit": "µg/mL"},
      {"measurement": "half-life", "setting": "[3]", "result": "9 to 12", "unit": "h"},
      {"measurement": "solubility", "setting": "[4]", "result": 272, "unit": "µg/mL"}
    ]}
  ]
}
